Results reported in patent publication US10487093B2, “Heterocyclic compounds, in particular 2-oxo-4,4,5,5,6,6,7,7-octahydrobenzoxazole derivatives, and their use as antibacterial compounds” (priority 2016, dated 2019).

The compounds below were run on Gram-negative and Gram-positive bacterial strains. Settings: including those which are resistant to fluoroquinolone antibiotics and other antibiotics.
Assay type: cell-based

Structure (SMILES)	activity against all strains of A. baumannii and E. coli tested (in words)
COc1ccc2ncc(=O)n(CCN[C@H]3CCC4C(C3)OC(=O)N4c3ccc4c(n3)NC(=O)CO4)c2n1 (stereo in doubt) [Compound 45, (3aS,6S,7aS)-6-[(2-{6-methoxy-3-oxo-3H,4H-pyrido[2,3-b]pyrazin-4-yl}ethyl)amino]-3-{3-oxo-2H,3H,4H-pyrido[3,2-b][1,4]oxazin-6-yl}-octahydro-1,3-benzoxazol-2-one]	excellent activity
COc1ccc2ccc(=O)n(CCN[C@H]3CC[C@H]4[C@@H](C3)OC(=O)N4c3ccc4c(n3)NC(=O)CO4)c2n1 [Compound 4, 1-(2-{[(3aS,6S,7aR)-2-oxo-3-{3-oxo-2H,3H,4H-pyrido[3,2-b][1,4]oxazin-6-yl}-octahydro-1,3-benzoxazol-6-yl]amino}ethyl)-7-methoxy-1,2-dihydro-1,8-naphthyridin-2-one]	excellent activity
COc1ccc2ncc(=O)n(CCN[C@@H]3CC[C@@H]4[C@@H](C3)OC(=O)N4c3ccc4c(n3)NC(=O)CO4)c2c1 [Compound 21, 1-(2-{[(3aR,6R,7aR)-2-oxo-3-{3-oxo-2H,3H,4H-pyrido[3,2-b][1,4]oxazin-6-yl}-octahydro-1,3-benzoxazol-6-yl]amino}ethyl)-7-methoxy-1,2-dihydroquinoxalin-2-one]	excellent activity
O=C1COc2ccc(N3C(=O)O[C@@H]4C[C@@H](NCCn5c(=O)cnc6cc(F)c(F)cc65)CC[C@@H]43)nc2N1 [Compound 22, 1-(2-{[(3aS,6S,7aR)-2-oxo-3-{3-oxo-2H,3H,4H-pyrido[3,2-b][1,4]oxazin-6-yl}-octahydro-1,3-benzoxazol-6-yl]amino}ethyl)-6,7-difluoro-1,2-dihydroquinoxalin-2-one]	excellent activity
O=C1COc2ccc(N3C(=O)O[C@H]4C[C@@H](NCCn5c(=O)cnc6cc(F)c(F)cc65)CC[C@@H]43)nc2N1 [Compound 34, 1-(2-{[(3aS,6S,7aS)-2-oxo-3-{3-oxo-2H,3H,4H-pyrido[3,2-b][1,4]oxazin-6-yl}-octahydro-1,3-benzoxazol-6-yl]amino}ethyl)-6,7-difluoro-1,2-dihydroquinoxalin-2-one]	excellent activity
N#Cc1cnc2ccc(=O)n(CCN[C@H]3CC[C@H]4[C@H](C3)OC(=O)N4c3ccc4c(n3)NC(=O)CO4)c2c1 [Compound 55, 5-(2-{[(3aS,6S,7aS)-2-oxo-3-{3-oxo-2H,3H,4H-pyrido[3,2-b][1,4]oxazin-6-yl}-octahydro-1,3-benzoxazol-6-yl]amino}ethyl)-6-oxo-5,6-dihydro-1,5-naphthyridine-3-carbonitrile]	excellent activity
N#Cc1ccc2ccc(=O)n(CCN[C@H]3CC[C@H]4[C@H](C3)OC(=O)N4c3ccc4c(n3)NC(=O)CO4)c2c1 [Compound 56, 1-(2-{[(3aS,6S,7aS)-2-oxo-3-{3-oxo-2H,3H,4H-pyrido[3,2-b][1,4]oxazin-6-yl}-octahydro-1,3-benzoxazol-6-yl]amino}ethyl)-2-oxo-1,2-dihydroquinoline-7-carbonitrile]	excellent activity
N#Cc1ccc2ncc(=O)n(CCN[C@@H]3CC[C@@H]4[C@@H](C3)OC(=O)N4c3ccc4c(n3)NC(=O)CO4)c2c1 [Compound 68, 4-(2-{[(3aR,6R,7aR)-2-oxo-3-{3-oxo-2H,3H,4H-pyrido[3,2-b][1,4]oxazin-6-yl}-octahydro-1,3-benzoxazol-6-yl]amino}ethyl)-3-oxo-3,4-dihydroquinoxaline-6-carbonitrile]	excellent activity
COc1cnc2ccc(=O)n(CCN[C@@H]3CC[C@@H]4[C@@H](C3)OC(=O)N4c3ccc4c(n3)NC(=O)CO4)c2c1 [Compound 69, 1-(2-{[(3aR,6R,7aR)-2-oxo-3-{3-oxo-2H,3H,4H-pyrido[3,2-b][1,4]oxazin-6-yl}-octahydro-1,3-benzoxazol-6-yl]amino}ethyl)-7-methoxy-1,2-dihydro-1,5-naphthyridin-2-one]	excellent activity
N#Cc1cnc2ccc(=O)n(CCN[C@H]3CC[C@H]4[C@H](C3)OC(=O)N4c3ccc4c(n3)NC(=O)CS4)c2c1 [Compound 77, 5-(2-{[(3aS,6S,7aS)-2-oxo-3-{3-oxo-2H,3H,4H-pyrido[3,2-b][1,4]thiazin-6-yl}-octahydro-1,3-benzoxazol-6-yl]amino}ethyl)-6-oxo-5,6-dihydro-1,5-naphthyridine-3-carbonitrile]	excellent activity
COc1cccc(-c2cccc(CN[C@@H]3CC[C@@H]4[C@@H](C3)OC(=O)N4c3ccc4c(n3)NC(=O)CO4)c2)n1 [Compound 80, (3aR,6R,7aR)-6-({[3-(6-methoxypyridin-2-yl)phenyl]methyl}amino)-3-{3-oxo-2H,3H,4H-pyrido[3,2-b][1,4]oxazin-6-yl}-octahydro-1,3-benzoxazol-2-one]	excellent activity
COc1cnc2ccc(=O)n(CCN[C@H]3CC[C@H]4[C@H](C3)OC(=O)N4c3ccc4c(n3)NC(=O)CS4)c2c1 [Compound 81, 1-(2-{[(3aS,6S,7aS)-2-oxo-3-{3-oxo-2H,3H,4H-pyrido[3,2-b][1,4]thiazin-6-yl}-octahydro-1,3-benzoxazol-6-yl]amino}ethyl)-7-methoxy-1,2-dihydro-1,5-naphthyridin-2-one]	excellent activity
COc1ccc2ccc(=O)n(CCCN[C@H]3CC[C@H]4[C@H](C3)OC(=O)N4c3ccc4c(n3)NC(=O)CS4)c2n1 [Compound 85, 1-(3-{[(3aS,6S,7aS)-2-oxo-3-{3-oxo-2H,3H,4H-pyrido[3,2-b][1,4]thiazin-6-yl}-octahydro-1,3-benzoxazol-6-yl]amino}propyl)-7-methoxy-1,2-dihydro-1,8-naphthyridin-2-one]	excellent activity
O=C1COc2ccc(N3C(=O)O[C@@H]4C[C@H](NCCCn5c(=O)cnc6cc(F)c(F)cc65)CC[C@H]43)nc2N1 [Compound 88, 1-(3-{[(3aR,6R,7aR)-2-oxo-3-{3-oxo-2H,3H,4H-pyrido[3,2-b][1,4]oxazin-6-yl}-octahydro-1,3-benzoxazol-6-yl]amino}propyl)-6,7-difluoro-1,2-dihydroquinoxalin-2-one]	excellent activity
O=C1COc2ccc(N3C(=O)O[C@H]4C[C@@H](NCCCn5c(=O)cnc6cc(F)c(F)cc65)CC[C@@H]43)nc2N1 [Compound 90, 1-(3-{[(3aS,6S,7aS)-2-oxo-3-{3-oxo-2H,3H,4H-pyrido[3,2-b][1,4]oxazin-6-yl}-octahydro-1,3-benzoxazol-6-yl]amino}propyl)-6,7-difluoro-1,2-dihydroquinoxalin-2-one]	excellent activity
O=C1COc2ccc(N3C(=O)O[C@H]4C[C@@H](NCCn5c(=O)ccc6ccc(OC(F)F)cc65)CC[C@@H]43)nc2N1 [Compound 101, 1-(2-{[(3aS,6S,7aS)-2-oxo-3-{3-oxo-2H,3H,4H-pyrido[3,2-b][1,4]oxazin-6-yl}-octahydro-1,3-benzoxazol-6-yl]amino}ethyl)-7-(difluoromethoxy)-1,2-dihydro quinolin-2-one]	excellent activity
COc1ccc2ccc(=O)n(CCN[C@H]3CC[C@H]4[C@H](C3)OC(=O)N4c3ccc4c(n3)NC(=O)CO4)c2c1 [Compound 102, 1-(2-{[(3aS,6S,7aS)-2-oxo-3-{3-oxo-2H,3H,4H-pyrido[3,2-b][1,4]oxazin-6-yl}-octahydro-1,3-benzoxazol-6-yl]amino}ethyl)-7-methoxy-1,2-dihydroquinolin-2-one]	excellent activity
N#Cc1cccc(-c2cccc(CN[C@H]3CC[C@H]4[C@H](C3)OC(=O)N4c3ccc4c(n3)NC(=O)CO4)n2)c1 [Compound 105, 3-[6-({[(3aS,6S,7aS)-2-oxo-3-{3-oxo-2H,3H,4H-pyrido[3,2-b][1,4]oxazin-6-yl}-octahydro-1,3-benzoxazol-6-yl]amino}methyl)pyridin-2-yl]benzonitrile]	excellent activity
